“Also recorded” adds a separate entry of the source.
B1: Act A: activin A (R&D Systems) (protein, UniProt P08476 311-426, looked up)
Inhibin beta A chain: GLECDGKVNICCKKQFFVSFKDIGWNDWIIAPSGYHANYCEGECPSHIAGTSGSSLSFHSTVINHYRMRGHSPFANLKSCCVPTKLRPMSMLYYDDGQNIIKKDIQNMIVEECGCS
modifications: Inhibin beta A chain

Experiments:
Type in all cases: cell-based, pig
porcine XEN cells [1] = assay: Withdrawal of signaling molecules or supplements from porcine XEN cell medium (morphology, AP staining, GATA6 ICC); conditions: for colony morphology / proliferation on withdrawal of the factor: factor withdrawn from medium with B27, CHIR, FGF2, LIF, Act A, FIG. 3a; for AP staining and GATA6 expression on withdrawal of the factor: factor withdrawn, FIG. 3b, 3c
Protocol: Before staining, all cell samples were pre-cultured at 4° C. for 10 minutes and fixed with 4% paraformaldehyde for 15 minutes. After washing with Dulbecco's Phosphate Buffered Saline (DPBS) (Welgene), the fixed cells were stained with a buffer solution containing nitro blue tetrazolium chloride and 5-bromo-4-chloro-3-indolyl phosphate toluidine salt stock solution (Roche; Basel, Switzerland) at room temperature for 30 minutes. Stained cells were observed under an inverted microscope.
For immunostaining, the cells were fixed in 4% (w/v) paraformaldehyde. After washing with Dulbecco's Phosphate Buffered Saline (DPBS), the fixed cells were treated with 0.2% Triton-X100 (Sigma-Aldrich) at 4° C. for 2 hours. The cells were then treated with Dulbecco's Phosphate Buffered Saline (DPBS) containing 10% (v/v) goat or donkey serum for 1 hour to prevent non-specific binding. Serum-treated cells were cultured with primary antibodies at 4° C. for 24 hours. The primary antibodies used were as follows: rabbit anti-SOX2 (1:200, Millipore; AB5603), rabbit anti-NANOG (1:200, PeproTech; Rocky Hill, NJ, USA; 500-P236), chicken anti-OCT4 (1:100, Abcam; Cambridge, UK; ab134218), goose anti-GATA6 (15 μg/mL; R&D systems; AF1700), goose anti-SOX17 (1:200, R&D systems; AF1924), and rabbit anti-GATA4 (1:200, Abcam; ab84593). After incubation with primary antibodies, the cells were treated with Alexa Fluor-conjugated secondary antibodies at 4° C. for 24 hours. Nuclei were stained with Hoechst 33342 (Molecular Probes; Eugene, OR, USA). Images of stained cells were taken using a TE2000-U inverted fluorescence microscope (Nikon; Tokyo, Japan).
FIGS. 3a, 3b and 3c show changes in the withdrawal of signaling molecules or supplements for XEN cells.
In order to optimize the culture system of porcine XEN cells, B27 supplement, CHIR, FGF2, LIF or Act A was withdrawn from the medium during maintenance, and essential growth factors and signaling molecules were identified. Colonies were morphologically analyzed (FIG. 3a). […] In order to verify the responsiveness to these factors, AP staining and ICC for GATA6, which is a representative XEN cell marker, were performed to support the morphological analysis results (FIGS. 3b and 3c).

porcine XEN cells [2] = assay: Culture of porcine XEN cells under various concentrations of essential factors (colony number, qPCR); conditions: for concentration range appropriate for XEN cell culture: 7 days, colony number and qPCR of GATA6, SALL4, SPARC
Protocol: Total RNA was extracted using TRIzol reagent (Invitrogen; Carlsbad, USA) and cDNA was synthesized using High-Capacity RNA-to-cDNA Kit (Applied Biosystems; Waltham, MA, USA). cDNA was amplified using the primer sets listed in Table 1 below and PowerSYBR® Green PCR Master Mix (Applied Biosystems).
In addition, in order to fine-tune the culture system, porcine XEN cells were cultured under various concentrations of essential factors including FGF2, LIF and CHIR99021.

porcine XEN cells [3] = assay: Screening of serum-free culture conditions (signaling molecules, KSR, B27) for porcine XEN cells; conditions: FIG. 2a
Protocol: Porcine XEN cells were cultured under various conditions. Each of six fetal bovine serum (FBS) (three different batches purchased from Hyclone, Biowest, TCB and Genedepot) was applied to maintain porcine XEN cells. In addition, several signaling molecules and supplements were added to the basal medium supplemented with 15% (v/v), 10% (v/v) or 5% (v/v) knockout serum replacement (KSR) (Gibco; Gaithersburg, MD, USA) and tested. Factors tested were fibroblast growth factor 2 (FGF2) (R&D Systems; Minneapolis, MN, USA), human recombinant leukemia inhibitory factor (hrLIF) (Millipore; MA, USA), 5 ng/ml activin A (Activin A; R&D Systems), CHIR99021 (Cayman chemical; Ann Arbor, MI, USA), which is a GSK-3B inhibitor, and 1×B27 supplement (Gibco). The basal medium was a DMEM/F12 based medium, which consisted of 1× Glutamax, 0.1 mM β-mercaptoethanol and 1× antibiotic-antimycotic (all of which are manufactured by Gibco). The medium was changed every 24 hours and cultured under conditions of 5% CO2, 5% O2 and 38° C.
The present inventors performed screening of various factors in a DMEM/F12-based KSR-containing medium, which is commonly used for a serum-free medium in stem cells.

| Molecule | colony morphology / proliferation on withdrawal of the factor (porcine XEN cells [1]) | AP staining and GATA6 expression on withdrawal of the factor (porcine XEN cells [1]) | concentration range appropriate for XEN cell culture (porcine XEN cells [2]) | doubling time (porcine XEN cells [3]; DMEM/F12-based KSR-containing medium, factor alone) | proliferation / growth of XEN cells (porcine XEN cells [3]; DMEM/F12-based KSR-containing serum-free medium, 2b) | number of XEN colonies (porcine XEN cells [2]; low concentration of the factor, FIG. 4a, 4b) | self-renewal of porcine XEN cells (porcine XEN cells [1]; high concentration, control versus Act A withdrawn) |
| --- | --- | --- | --- | --- | --- | --- | --- |
| Cc1c[nH]c(-c2cnc(NCCNc3ccc(C#N)cn3)nc2-c2ccc(Cl)cc2Cl)n1 [CHIR99021, reference compound] | colony boundaries collapsed and cell density within colonies decreased | detected locally | 0.5 to 4.5 µM | – | – | – | – |
| FGF2: fibroblast growth factor 2 (FGF2) (R&D Systems) | no colonies after 4 days | detected locally | 10 to 100 ng/mL | prolonged | insufficient to proliferate XEN cells | few colonies were detected | – |
| LIF: human recombinant leukemia inhibitory factor (hrLIF) (Millipore) | cell proliferation was inhibited | detected locally; also recorded: intense GATA6 expression only in the colony center | 0.1 to 20 ng/mL | – | – | – | – |
| B1 | – | evenly positive | – | – | – | – | inhibits the self-renewal |
